The subject of series [1] is Puccinia recondita f, Sp. Tritici. The experiment in a line: Fungicidal activity against Puccinia recondita f. sp. tritici / wheat / leaf disc preventative (brown rust). In kind it is in vivo. The following applies: foliar, 200 ppm in the applied formulation, wheat leaf segments cv. Kanzler, inoculated 1 day after application, compared to untreated, read-out: disease control. Here is the method:
(§1) General examples of leaf disk tests in well plates: Leaf disks or leaf segments of various plant species are cut from plants grown in a greenhouse. The cut leaf disks or segments are placed in multiwell plates (24-well format) onto water agar. The leaf disks are sprayed with a test solution before (preventative) or after (curative) inoculation. Compounds to be tested are prepared as DMSO solutions (max. 10 mg/ml) which are diluted to the appropriate concentration with 0.025% Tween20 just before spraying. The inoculated leaf disks or segments are incubated under defined conditions (temperature, relative humidity, light, etc.) according to the respective test system. A single evaluation of disease level is carried out 3 to 14 days after inoculation, depending on the pathosystem. Percent disease control relative to the untreated check leaf disks or segments is then calculated. General examples of liquid culture tests in well plates: Mycelia fragments or conidia suspensions of a fungus prepared either freshly from liquid cultures of the fungus or from cryogenic storage, are directly mixed into nutrient broth. DMSO solutions of the test compound (max. 10 mg/ml) are diluted with 0.025% Tween20 by a factor of 50 and 10 μl of this solution is pipetted into a microtiter plate (96-well format). The nutrient broth containing the fungal spores/mycelia fragments is then added to give an end concentration of the tested compound. The test plates are incubated in the dark at 24° C. and 96% relative humidity. The inhibition of fungal growth is determined photometrically after 2 to 7 days, depending on the pathosystem, and percent antifungal activity relative to the untreated check is calculated.
Example 1: Fungicidal Activity Against Puccinia recondita f, Sp. Tritici/Wheat/Leaf Disc Preventative (Brown Rust)
Wheat leaf segments cv. Kanzler were placed on agar in multiwell plates (24-well format) and sprayed with the formulated test compound diluted in water. The leaf disks were inoculated with a spore suspension of the fungus 1 day after application. The inoculated leaf segments were incubated at 19° C. and 75% relative humidity (rh) under a light regime of 12 hours light/12 hours darkness in a climate cabinet and the activity of a compound was assessed as percent disease control compared to untreated when an appropriate level of disease damage appears in untreated check leaf segments (7 to 9 days after application).
(§2) The following compounds at 200 ppm in the applied formulation give at least 80% disease control in this test when compared to untreated control leaf disks under the same conditions, which show extensive disease development.

The next series concerns Phakopsora pachyrhizi. The experiment in a line: Fungicidal activity against Phakopsora pachyrhizi / soybean / leaf disc preventative (Asian soybean rust). In kind it is in vivo. Conditions: foliar, 200 ppm in the applied formulation, soybean leaf disks, inoculated one day after application, compared to untreated, read-out: disease control. The method, then:
as §1
Example 3: Fungicidal Activity Against Phakopsora pachyrhizi/Soybean/Leaf Disc Preventative (Asian Soybean Rust)
Soybean leaf disks are placed on water agar in multiwell plates (24-well format) and sprayed with the formulated test compound diluted in water. One day after application leaf discs are inoculated by spraying a spore suspension on the lower leaf surface. After an incubation period in a climate cabinet of 24-36 hours in darkness at 20° C. and 75% rh leaf disc are kept at 20° C. with 12 h light/day and 75% rh. The activity of a compound is assessed as percent disease control compared to untreated when an appropriate level of disease damage appears in untreated check leaf disks (12 to 14 days after application).
as §2

In series [2] the test system is Puccinia Recondite f. Sp. Tritici. Nature of the series: Fungicidal activity against Puccinia recondita f. sp. tritici / wheat / leaf disc curative (brown rust). Conditions: foliar, 24 h, 200 ppm in the applied formulation, wheat leaf segments cv. Kanzler, applied 1 day after inoculation, compared to untreated, read-out: disease control. In kind it is in vivo. The method, then:
as §1
Example 2: Fungicidal Activity Against Puccinia Recondite f. Sp. Tritici Wheat/Leaf Disc Curative (Brown Rust)
Wheat leaf segments cv. Kanzler are placed on agar in multiwell plates (24-well format). The leaf segments are then inoculated with a spore suspension of the fungus. Plates were stored in darkness at 19° C. and 75% relative humidity. The formulated test compound diluted in water was applied 1 day after inoculation. The leaf segments were incubated at 19° C. and 75% relative humidity under a light regime of 12 hours light/12 hours darkness in a climate cabinet and the activity of a compound was assessed as percent disease control compared to untreated when an appropriate level of disease damage appears in untreated check leaf segments (6 to 8 days after application).
as §2

Series [3] concerns Glomerella Lagenarium (Colletotrichum Lagenarium). Nature of the series: Fungicidal activity against Glomerella lagenarium (Colletotrichum lagenarium) liquid culture / cucumber / preventative (anthracnose). It is filed as cell-based. Conditions: Colletotrichum orbiculare; 20 ppm in the applied formulation; liquid culture in PDB, growth inhibition measured photometrically 3 to 4 days after application; compared to untreated; read-out: disease control. The method, then:
as §1
Example 4: Fungicidal Activity Against Glomerella Lagenarium (Colletotrichum Lagenarium) Liquid Culture/Cucumber/Preventative (Anthracnose)
Conidia of the fungus from cryogenic storage are directly mixed into nutrient broth (PDB—potato dextrose broth). After placing a (DMSO) solution of test compound into a microtiter plate (96-well format), the nutrient broth containing the fungal spores is added. The test plates are incubated at 24° C. and the inhibition of growth is measured photometrically 3 to 4 days after application.
The following compounds at 20 ppm in the applied formulation give at least 80% disease control in this test when compared to untreated control under the same conditions, which show extensive disease development.

A value given as a limit tells only on which side of the number the result lay.

Turning to `O=C(NCc1ccc(-c2noc(C(F)(F)F)n2)cc1F)OC1CCOCC1` [Compound 1.1, tetrahydropyran-4-yl N-[[2-fluoro-4-[5-(trifluoromethyl)-1,2,4-oxadiazol-3-yl)phenyl]methyl) carbamate], the melting point was in the range of 105 to 108 °C. For the same molecule, the pest or weed control at 200 ppm in series [1] is no less than 80%. Also, in the series with Phakopsora pachyrhizi, the pest or weed control at 200 ppm is no less than 80%. Besides, the pest or weed control at 200 ppm in series [2] is no less than 80%. In addition, in series [3], the inhibition of growth at 20 ppm was no less than 80%.

As to `O=C(NCc1ccc(-c2noc(C(F)(F)F)n2)cc1)OC1CCOCC1` [Compound 1.2, tetrahydropyran-4-yl N-[[4-[5-(trifluoromethyl)-1,2,4-oxadiazol-3-yl]phenyl]methyl]carbamate], the melting point was 104 to 106 °C. The pest or weed control at 200 ppm in series [1] is no less than 80%. The pest or weed control at 200 ppm in the series with Phakopsora pachyrhizi is no less than 80%. The pest or weed control at 200 ppm in series [2] is no less than 80%. The inhibition of growth at 20 ppm in series [3] is no less than 80%.

In turn, `O=C(NCc1ccc(-c2noc(C(F)(F)F)n2)cc1)OCC1CC1` [Compound 1.3, cyclopropylmethyl N-[[4-[5-(trifluoromethyl)-1,2,4-oxadiazol-3-yl]phenyl]methyl] carbamate] showed a melting point of 108.2 to 109.8 °C. Moreover, the pest or weed control at 200 ppm in series [1] was no less than 80%. Also, the pest or weed control at 200 ppm with Phakopsora pachyrhizi was no less than 80%. In series [2], the pest or weed control at 200 ppm is no less than 80%. Moreover, the inhibition of growth at 20 ppm in series [3] is no less than 80%.

`O=C(NCc1ccc(-c2noc(C(F)(F)F)n2)cc1)NCC1CC1` [Compound 2.1, 1-(cyclopropylmethyl)-3-[[4-[5-(trifluoromethyl)-1,2,4-oxadiazol-3-yl]phenyl]methyl]urea] had a melting point of 158.8 to 165 °C. For the same molecule, the pest or weed control at 200 ppm in series [1] was no less than 80%. The pest or weed control at 200 ppm in the series with Phakopsora pachyrhizi was no less than 80%. For the same molecule, the inhibition of growth at 20 ppm in series [3] was no less than 80%.

Take `O=C(NCc1ccc(-c2noc(C(F)(F)F)n2)cc1F)NCC1CC1` [Compound 2.2, 1-(cyclopropylmethyl)-3-[[2-fluoro-4-[5-(trifluoromethyl)-1,2,4-oxadiazol-3-yl]phenyl]methyl]urea]: the melting point lay in the range of 157 to 160 °C. In addition, the pest or weed control at 200 ppm in the series on Phakopsora pachyrhizi was no less than 80%. In series [3], the inhibition of growth at 20 ppm was no less than 80%.

The molecule `O=C(NCc1ccc(-c2noc(C(F)(F)F)n2)c(F)c1)Nc1ccccc1Cl` [Compound 2.21, 1-(2-chlorophenyl)-3-[[3-fluoro-4-[5-(trifluoromethyl)-1,2,4-oxadiazol-3-yl]phenyl]methyl]urea] returned a melting point of 173 to 178 °C. In addition, the pest or weed control at 200 ppm in series [1] is no less than 80%.

Take `CN(C(=O)NCc1ccc(-c2noc(C(F)(F)F)n2)cc1)C1CC1` [Compound 2.22, 1-cyclopropyl-1-methyl-3-[[4-[5-(trifluoromethyl)-1,2,4-oxadiazol-3-yl]phenyl]methyl]urea]: the pest or weed control at 200 ppm (in series [1]; with Phakopsora pachyrhizi; in series [2]) was no less than 80% each time. Moreover, the inhibition of growth at 20 ppm in series [3] was no less than 80%.

For `CN(C(=O)NCc1ccc(-c2noc(C(F)(F)F)n2)cc1)C1CCC1` [Compound 2.26, 1-cyclobutyl-1-methyl-3-[[4-[5-(trifluoromethyl)-1,2,4-oxadiazol-3-yl]phenyl]methyl]urea], the pest or weed control at 200 ppm (in series [1]; with Phakopsora pachyrhizi; in series [2]) was no less than 80% throughout. Moreover, in series [3], the inhibition of growth at 20 ppm was no less than 80%.

In the case of `CCN(C(=O)NCc1ccc(-c2noc(C(F)(F)F)n2)cc1)C1CC1` [Compound 2.27, 1-cyclopropyl-1-ethyl-3-[[4-[5-(trifluoromethyl)-1,2,4-oxadiazol-3-yl]phenyl]methyl]urea], the pest or weed control at 200 ppm (in series [1]; in the series on Phakopsora pachyrhizi; in series [2]) was no less than 80% throughout. In addition, the inhibition of growth at 20 ppm in series [3] was no less than 80%.

On to `COCC1(N(C)C(=O)NCc2ccc(-c3noc(C(F)(F)F)n3)cc2)CC1` [Compound 2.28, 1-[1-(methoxymethyl)cyclopropyl]-1-methyl-3-[[4-[5-(trifluoromethyl)-1,2,4-oxadiazol-3-yl]phenyl]methyl]urea], for which the pest or weed control at 200 ppm (in series [1]; in the series with Phakopsora pachyrhizi; in series [2]) was no less than 80% throughout. In addition, the inhibition of growth at 20 ppm in series [3] is no less than 80%.

Take `C#CCN(C(=O)NCc1ccc(-c2noc(C(F)(F)F)n2)cc1)C1CC1` [Compound 2.30, 1-cyclopropyl-1-prop-2-ynyl-3-[[4-[5-(trifluoromethyl)-1,2,4-oxadiazol-3-yl]phenyl]methyl]urea]: the pest or weed control at 200 ppm (in series [1]; with Phakopsora pachyrhizi; in series [2]) was no less than 80% each time. Besides, the inhibition of growth at 20 ppm in series [3] is no less than 80%.

As to `CN(CC1CC1)C(=O)NCc1ccc(-c2noc(C(F)(F)F)n2)cc1` [Compound 2.31, 1-(cyclopropylmethyl)-1-methyl-3-[[4-[5-(trifluoromethyl)-1,2,4-oxadiazol-3-yl]phenyl]methyl]urea], the pest or weed control at 200 ppm (in series [1]; with Phakopsora pachyrhizi; in series [2]) was no less than 80% throughout. Also, the inhibition of growth at 20 ppm in series [3] is no less than 80%.

In turn, `O=C(NCCc1ccc(-c2noc(C(F)(F)F)n2)cc1)NC1CC1` [Compound 2.32, 1-cyclopropyl-3-[2-[4-[5-(trifluoromethyl)-1,2,4-oxadiazol-3-yl]phenyl]ethyl]urea] gave a melting point of 147 to 159 °C.

`O=C(NCc1ccc(-c2noc(C(F)(F)F)n2)c(F)c1)N1CCOCC1` [Compound 3.3, N-[[3-fluoro-4-[5-(trifluoromethyl)-l,2,4-oxadiazol-3-yl]phenyl]methyl] morpholine-4-carboxamide] gave a melting point of 82 to 94 °C. The pest or weed control at 200 ppm in series [1] was no less than 80%. For the same molecule, the pest or weed control at 200 ppm in series [2] is no less than 80%. In addition, in series [3], the inhibition of growth at 20 ppm was no less than 80%.

Turning to `O=C(NCc1ccc(-c2noc(C(F)(F)F)n2)cc1)N1CCCC1` [Compound 3.4, N-[[4-[5-(trifluoromethyl)-l,2,4-oxadiazol-3-yl]phenyl]methyl] pyrrolidine-1-carboxamide], the pest or weed control at 200 ppm (in series [1]; in the series with Phakopsora pachyrhizi; in series [2]) was no less than 80% in each case. Besides, the inhibition of growth at 20 ppm in series [3] is no less than 80%.

In the case of `O=C(NCc1ccc(-c2noc(C(F)(F)F)n2)cc1)N1CCCO1` [Compound 3.5, N-[[4-[5-(trifluoromethyl)-l,2,4-oxadiazol-3-yl]phenyl]methyl] isoxazolidine-2-carboxamide], the pest or weed control at 200 ppm (in series [1]; with Phakopsora pachyrhizi; in series [2]) was no less than 80% each time. Besides, the inhibition of growth at 20 ppm in series [3] was no less than 80%.

(Values after US20190364899A1, “MICROBIOCIDAL OXADIAZOLE DERIVATIVES” (SYNGENTA PARTICIPATIONS AG, priority 2015, published 2019).)
